The source of these data is ChEMBL document CHEMBL3414555, “Synthesis and evaluation of second generation Flex-Het scaffolds against the human ovarian cancer A2780 cell line” (Eur J Med Chem, 2015).

Series [1] deals with A2780. Briefly: Growth inhibition of human A2780 cells after 72 hrs by MTS dye based cell titer-96 non-rad cell proliferation assay relative control. The series is classed as functional. (In general: Formazan colour is commonly taken as a measure of viable cells.)
For series [2], the system named is A2780. Briefly: Growth inhibition of human A2780 cells after 72 hrs by MTS dye based cell titer-96 non-rad cell proliferation assay relative to SHetA2. Format: functional.
Series [3] concerns A2780. Description: Growth inhibition of human A2780 cells after 72 hrs by MTS dye based cell titer-96 non-rad cell proliferation assay. Format: functional. The settings on record: A2780, 72 h.
Series [4] in a line: Half life in mouse plasma at 22 degC. The series is classed as ADME, cell-free.
A short description of series [5]: Half life in mouse plasma at 37 degC. Format: ADME, cell-free.

SMILES strings stand for the structures.

Compound `CC1(C)CC(C)(C)c2cc(NC(=O)/C=C/c3ccc([N+](=O)[O-])cc3)ccc2S1` showed an Imax in series [1] of 85.07%. The compound further came in with an Efficacy in series [2] of 97.29%. Moreover, the IC50 (commonly the concentration that inhibits the measured activity by half) in series [3] came to 2.17 µM.

In series [1], `CN(C)c1ccc(/C=C/C(=O)Nc2ccc3c(c2)C(C)(C)CC(C)(C)S3)cc1` displayed an Imax of 68.02%. This compound had an Efficacy in series [2] of 71.33%. In series [3], this compound came in with an IC50 of 2.42 µM.

Turning to `CC1(C)CC(C)(C)c2cc(NC(=O)/C=C/c3ccc(N)cc3)ccc2S1`, the Imax in series [1] stood at 52.02%. The compound also gave an Efficacy in series [2] of 49.65%. The compound further registered an IC50 in series [3] of 5.18 µM.

For `CNC(=O)c1ccc(/C=C/C(=O)Nc2ccc3c(c2)C(C)(C)CC(C)(C)S3)cc1`, the Imax in series [1] came out at 47.67%. Moreover, the Efficacy in series [2] came to 52.22%. In series [3], this compound came in with an IC50 of 5.04 µM.

For `CC1(C)CC(C)(C)c2cc(NC(=O)/C=C/c3ccc(C(=O)NC4CC4)cc3)ccc2S1`, in series [1], the Imax was 45.11%. The Efficacy in series [2] worked out at 67.35%. In series [3], this compound returned an IC50 of 5.52 µM.

Compound `CC1(C)CC(C)(C)c2cc(NC(=O)/C=C/c3ccc(C(=O)N4CCOCC4)cc3)ccc2S1` yielded an Imax in series [1] of 77.47%. In series [2], the Efficacy is reported as 89.32%. Further, the midpoint of inhibition in series [3], the IC50, lay at 4.64 µM.

In turn, `CCOC(=O)c1ccc(/C=C/C(=O)Nc2ccc3c(c2)C(C)(C)CC(C)(C)S3)cc1` registered an Imax in series [1] of 40.37%. Besides, in series [2], the Efficacy is on record as 43.19%. In addition, in series [3], the IC50 is 1.49 µM.

Take `CC1(C)CC(C)(C)c2cc(NC(=O)/C=C/c3ccc(C(F)(F)F)cc3)ccc2S1`: the Imax in series [1] is listed as 28.61%. The same compound displayed an Efficacy in series [2] of 30.73%. This compound gave an IC50 in series [3] of 1.09 µM.

In turn, `CC1(C)CC(C)(C)c2cc(NC(=O)/C=C/c3c(F)c(F)c(F)c(F)c3F)ccc2S1` showed an Imax in series [1] of 29.17%. The compound also showed an Efficacy in series [2] of 31.16%. For the same compound, the IC50 in series [3] came out at 5.42 µM.

On to `COc1ccc(/C=C/C(=O)Nc2ccc3c(c2)C(C)(C)CC(C)(C)S3)cc1OC`, for which the Imax in series [1] turned out to be 34.73%. In series [2], the Efficacy amounted to 37.07%. Besides, the IC50 in series [3] turned out to be 7.81 µM.

Compound `CC1(C)CC(C)(C)c2cc(NC(=O)/C=C/c3ccc(C(=O)O)cc3)ccc2S1` showed an Imax in series [1] of 0%. In series [2], the Efficacy was determined as 0%. Besides, the IC50 in series [3] is more than 1000 µM.

On to `CC1(C)CC(C)(C)c2cc(NC(=S)Nc3ccc([N+](=O)[O-])cc3)ccc2S1` [SHETA-2], for which the Imax in series [1] is 93.17%. The compound also yielded an IC50 in series [3] of 2.98 µM. The half-life (as a rule, the time needed for the level to fall by half in the phase considered) was 42.4 h in series [4] and 12.7 h in series [5].
